The source of these data is patent publication US20240400591A1 (Jacobio Pharmaceuticals Co., Ltd., priority 2021, published 2024).

One may read the IC50 as the concentration at which inhibition is half-maximal. For orientation: EC50 means the concentration that produces a half-maximal response.

The structures appear in SMILES notation. Where two headings read alike, the source gives them in different places. Where only a bound is given, the exact number is not on record here.

One assay relates to NUGC3 (P53 Y220C). Briefly: Cell viability assay (CellTiter-Glo, 6 days), NUGC3. The format is cell-based. The method, then:
(§1) Cells were collected and counted. A desired number of cells was seeded into 96-well microplate and cultured in 37° C. cell incubator overnight. Compounds dissolved in cell culture medium were added into cell plate and cultured for 6 days. After balancing CellTiter-Glo reagent and cells at room temperature for 30 min, equal volume of CellTiter-Glo reagents was added to assay plate and shaken for 2 min for cell lysis. The cells were balanced at room temperature for 10 minutes and Luminescence signal was read using Envision. The percent of cell viability for compounds treated wells were normalized between High control and low control. Wells containing cell culture medium and same percentage DMSO sewved as Low control. Wells containing cells and same percentage DMSO sewved as High control. Cell viability (%)=(Luminescence readoutCompound treated−Luminescence readoutLow control)/(Luminescence readoutHigh control−Luminescence readoutLow control)*100%. Then the data were analyzed either by fitting a 4-parameter logistic model or by Excel to calculate IC50 values. And the IC50 was the concentration at 50% Cell viability on the curve.

Assay [1] deals with T1, His-p53 Y220C (94-294) protein (Homo sapiens, UniProt P04637, Y220C).
T1 construct: His-p53 Y220C (94-294) protein
Briefly: In vitro DNA binding assay (HTRF). It counts as biochemical. Particulars: % activation normalized to 2 μM Ref-1a high control.

The subject of assay [2] is NUGC-3_P53_Luc single clonal cell line (p53 Y220C). Briefly: Reporter gene assay (p53 RE luciferase). It counts as cell-based. The procedure: NUGC-3_P53_Luc single clonal cell line was established using pGL4.38[luc2P/p53 RE/Hygro] Vector (E365A, promega). NUGC-3_P53-Luc single clonal cells were cultured in 37° C. cell incubator before use. NUGC-3-P53-Luc cells were collected and washed twice with PBS to remove phenol red and then resuspended in medium to a proper concentration. Tested compound dilutions were transferred into 384 well assay plates (PerkinElmer). A desired number of cells was seeded into the assay plate and cultured for 6 hours at 37° C. cell incubator. Britelite plus Luciferase Assay Reagent were added into each well and the luminescence value was recorded on Envision. The percent of activity value of compounds treated wells was normalized between high control and low control. Wells containing cells and Ref-1a (10 μM) sewved as high control, and wells containing cells and same percentage of DMSO sewved as low control. Activity value (%)=(Luminescence readoutCompound treated−Luminescence readoutLow control)/(Luminescence readoutHigh control−Luminescence readoutLow control)*100%. Then the data were analyzed either by fitting a 4-parameter logistic model or by Excel to calculate EC50 values and the EC50 was the concentration at 50% Activity on the curve.

Another assay relates to NUGC4 (P53 WT). Nature of the assay: Cell viability assay (CellTiter-Glo, 6 days), NUGC4. The format is cell-based. The method, then:
as §1

The mark [3] stands for this setting: Homo sapiens, NUGC-3, 144 h, cell viability, 6 days, CellTiter-Glo, read-out: NUGC3 (P53 Y220C) IC50.
The mark [4] stands for this setting: Homo sapiens, NUGC-3, luciferase reporter, 6 hours, normalized to Ref-1a (10 μM) high control, read-out: p53(Y220C)_NUGC-3 EC50.
[5] abbreviates: Homo sapiens, NUGC-4, 144 h, cell viability, 6 days, CellTiter-Glo, read-out: NUGC4 (P53 WT) IC50.
[6] abbreviates: Homo sapiens, NUGC-3, 6 h, luciferase reporter, 6 hours, normalized to Ref-1a (10 μM) high control, read-out: p53(Y220C)_NUGC-3 EC50.
[7] abbreviates: cell viability, 6 days, CellTiter-Glo, read-out: NUGC3 (P53 Y220C) IC50.
The mark [8] stands for this setting: luciferase reporter, 6 hours, normalized to Ref-1a (10 μM) high control, read-out: p53(Y220C)_NUGC-3 EC50.
The mark [9] stands for this setting: cell viability, 6 days, CellTiter-Glo, read-out: NUGC4 (P53 WT) IC50.

For `COCCNC(=O)c1cc(P(C)(C)=O)ccc1NCC#Cc1sc2c(N[C@@H]3CCN(C)C[C@@H]3Cl)cccc2c1CC(F)(F)F` [Example 219, 2-((3-(7-(((3S,4R)-3-chloro-1-methylpiperidin-4-yl)amino)-3-(2,2,2-trifluoroethyl)benzo[b]thiophen-2-yl)prop-2-yn-1-yl)amino)-5-(dimethylphosphoryl)-N-(2-methoxyethyl)benzamide], the IC50 amounted to 0.36 µM in the assay with NUGC3 (P53 Y220C) (Homo sapiens, NUGC-3, 144 h, read-out: NUGC3 (P53 Y220C) IC50 (μM)) and 19.5 µM in the assay with NUGC4 (P53 WT) (Homo sapiens, NUGC-4, 144 h, read-out: NUGC4 (P53 WT) IC50 (μM)). Also, the concentration giving a half-maximal response (EC50) in assay [1] is 45 nM; in assay [2] (Homo sapiens, NUGC-3, 6 h, read-out: p53(Y220C)_NUGC-3 EC50 (μM)), 0.09 µM.
Consider `COc1nc(P(C)(C)=O)ncc1NCC#Cc1sc2c(N[C@@H]3CCN(C)C[C@@H]3F)cccc2c1CC(F)(F)F` [Example 208, (5-((3-(7-(((3S,4R)-3-fluoro-1-methylpiperidin-4-yl)amino)-3-(2,2,2-trifluoroethyl)benzo[b]thiophen-2-yl)prop-2-yn-1-yl)amino)-4-methoxypyrimidin-2-yl)dimethylphosphine oxide], for which the values for the 50% inhibitory concentration (IC50) in the assay with NUGC3 (P53 Y220C) (setting [3]) and in the assay on NUGC4 (P53 WT) (setting [5]) were 2.13 µM and 13.7 µM, respectively. The 50% effective concentration (EC50) in assay [1] stood at 43 nM; in assay [2] (setting [4]) it was 0.71 µM.
On to `CNC(=O)c1ccc(NCC#Cc2cc3c(N[C@H]4CCN(C)C[C@H]4F)cccc3n2CC(F)(F)F)c(OC)c1` [Example 111, 4-((3-(4-(((3R,4S)-3-fluoro-1-methylpiperidin-4-yl)amino)-1-(2,2,2-trifluoroethyl)-1H-indol-2-yl)prop-2-yn-1-yl)amino)-3-methoxy-N-methylbenzamide], for which the IC50 in the assay with NUGC3 (P53 Y220C) (setting [3]) amounted to 1.84 µM; in the assay on NUGC4 (P53 WT) (setting [5]), 13.1 µM. The concentration giving a half-maximal response (EC50) in assay [1] came out at 101 nM; in assay [2] (setting [6]) it was 0.16 µM.
The like results for `CN1CC[C@H](Nc2cccc3c(CC(F)(F)F)c(C#CCNc4ccc(P(C)(C)=O)cc4C(F)F)sc23)[C@H](F)C1` [Example 225, (3-(difluoromethyl)-4-((3-(7-(((3R,4S)-3-fluoro-1-methylpiperidin-4-yl)amino)-3-(2,2,2-trifluoroethyl)benzol[b]thiophen-2-yl)prop-2-yn-1-yl)amino)phenyl)dimethylphosphine oxide] were, in that order, 0.44 µM, 13.6 µM, 36 nM and 0.17 µM.
For `CN1CC[C@@H](Nc2cccc3c(CC(F)(F)F)c(C#CCOc4ccc(P(C)(C)=O)cc4C(N)=O)sc23)[C@@H](F)C1` [Example 165, 5-(dimethylphosphoryl)-2-((3-(7-(((3S,4R)-3-fluoro-1-methylpiperidin-4-yl)amino)-3-(2,2,2-trifluoroethyl)benzo[b]thiophen-2-yl)prop-2-yn-1-yl)oxy)benzamide], the values for the IC50 with NUGC3 (P53 Y220C) (setting [3]) and with NUGC4 (P53 WT) (setting [5]) were 20.5 µM and greater than 50 µM, respectively. The concentration for a half-maximal effect (EC50) in assay [1] was 48 nM; in assay [2] (setting [4]), 4.22 µM.
In the case of `CNC(=O)c1ccc(NCC#Cc2sc3c(N[C@H]4CCN(C)C[C@H]4F)cccc3c2CC(F)(F)F)c(OC)c1` [Example 112, 4-((3-(7-(((3R,4S)-3-fluoro-1-methylpiperidin-4-yl)amino)-3-(2,2,2-trifluoroethyl)benzo[b]thiophen-2-yl)prop-2-yn-1-yl)amino)-3-methoxy-N-methylbenzamide], the values for the IC50 in the assay with NUGC3 (P53 Y220C) (setting [3]) and in the assay on NUGC4 (P53 WT) (setting [5]) were 2.09 µM and 7.51 µM, respectively. For the same molecule, the EC50 in assay [1] was found to be 135 nM; in assay [2] (setting [6]), 0.27 µM.
In the case of `COc1cc(P(C)(C)=O)ccc1NCC#Cc1sc2c(NC3C4CCC3CN(C)C4)cccc2c1CC(F)(F)F` (centres unmarked) [Example 124, (3-methoxy-4-((3-(7-((3-methyl-3-azabicyclo[3.2.1]octan-8-yl)amino)-3-(2,2,2-trifluoroethyl)benzo[b]thiophen-2-yl)prop-2-yn-1-yl)amino)phenyl)dimethylphosphine oxide], the half-inhibitory concentration (IC50) was 2.31 µM with NUGC3 (P53 Y220C) (setting [3]) and 7.23 µM in the assay with NUGC4 (P53 WT) (setting [5]). Also, the EC50 in assay [1] stood at 143 nM; in assay [2] (setting [4]), 0.47 µM.
As to `COc1cc(P(C)(C)=O)ncc1NCC#Cc1sc2c(N[C@@H]3CCN(C)C[C@@H]3F)cccc2c1CC(F)(F)F` [Example 92, (5-((3-(7-(((3S,4R)-3-fluoro-1-methylpiperidin-4-yl)amino)-3-(2,2,2-trifluoroethyl)benzo[b]thiophen-2-yl)prop-2-yn-1-yl)amino)-4-methoxypyridin-2-yl)dimethylphosphine oxide], the half-maximal inhibitory concentration (IC50) in the assay on NUGC3 (P53 Y220C) (setting [3]) came out at 0.99 µM; in the assay with NUGC4 (P53 WT) (setting [5]), 13.4 µM. In addition, the EC50 was 47 nM in assay [1] and 0.18 µM in assay [2] (setting [4]).
The like results for `COc1cc(P(C)(C)=O)ccc1NCC#Cc1sc2c(NC3[C@@H]4COC[C@H]3CN(C)C4)cccc2c1CC(F)(F)F` (single isomer, unassigned) [Example 197] were, in that order, 0.39 µM, 11.5 µM, 26 nM and 0.12 µM.
For the molecule `COc1cc(P(C)(C)=O)ccc1NCC#Cc1sc2c(NC3[C@@H]4COC[C@H]3CN(C)C4)cccc2c1CC(F)(F)F` (single isomer, unassigned) [Example 196], the IC50 in the assay with NUGC3 (P53 Y220C) (setting [3]) was found to be 6.71 µM; in the assay with NUGC4 (P53 WT) (setting [5]) it was 18.6 µM. In addition, the EC50 was 67 nM in assay [1] and 0.66 µM in assay [2] (setting [6]).
`CN1CC[C@@H](Nc2cccc3c(CC(F)(F)F)c(C#CCNc4ccc(P(C)(C)=O)cc4S(C)(=O)=O)sc23)[C@@H](F)C1` [Example 175, (4-((3-(7-(((3S,4R)-3-fluoro-1-methylpiperidin-4-yl)amino)-3-(2,2,2-trifluoroethyl)benzo[b]thiophen-2-yl)prop-2-yn-1-yl)amino)-3-(methylsulfonyl)phenyl)dimethylphosphine oxide]: the half-maximal inhibitory concentration (IC50) in the assay with NUGC3 (P53 Y220C) (setting [3]) was determined as 3.55 µM; in the assay on NUGC4 (P53 WT) (setting [5]), 35.2 µM. In addition, the half-maximal effective concentration (EC50) in assay [1] amounted to 66 nM; in assay [2] (setting [4]), 0.64 µM.
For `COc1cc([S@](C)(=N)=O)ccc1NCC#Cc1sc2c(N[C@@H]3CCN(C)C[C@@H]3F)cccc2c1CC(F)(F)F` [Example 227, (R)-(4-((3-(7-(((3S,4R)-3-fluoro-1-methylpiperidin-4-yl)amino)-3-(2,2,2-trifluoroethyl)benzo[b]thiophen-2-yl)prop-2-yn-1-yl)amino)-3-methoxyphenyl)(imino)(methyl)-16-sulfanone], the results for the concentration for half-maximal inhibition (IC50) in the assay on NUGC3 (P53 Y220C) (setting [7]) and with NUGC4 (P53 WT) (setting [9]) were 0.28 µM and 17.6 µM, respectively. Moreover, the EC50 in assay [1] is 40 nM; in assay [2] (setting [8]), 0.04 µM.
Taken in the same sequence, the figures for `CN1CCC(Nc2cccc3c(CC(F)(F)F)c(C#CCNc4ccc(P(C)(C)=O)cc4OC(F)(F)F)sc23)C(F)C1` (centres unmarked) [Example 65, (4-((3-(7-(((Z)-3-fluoro-1-methylpiperidin-4-yl)amino)-3-(2,2,2-trifluoroethyl)benzo[b]thiophen-2-yl)prop-2-yn-1-yl)amino)-3-(trifluoromethoxy)phenyl)dimethylphosphine oxide] were 1.56 µM, 10 µM, 46 nM and 0.12 µM.
For `COc1cc(P(C)(C)=O)ccc1NCC#Cc1sc2c(NC3CCN(C)CC3F)cccc2c1CC#N` (racemic) [Example 107, 2-(2-(3-((4-(dimethylphosphoryl)-2-methoxyphenyl)amino)prop-1-yn-1-yl)-7-(((Z)-3-fluoro-1-methylpiperidin-4-yl)amino)benzo[b]thiophen-3-yl)acetonitrile], the concentration for half-maximal inhibition (IC50) with NUGC3 (P53 Y220C) (setting [3]) was determined as 7.25 µM; with NUGC4 (P53 WT) (setting [5]), 20.6 µM. Also, the EC50 in assay [1] amounted to 60 nM; in assay [2] (setting [4]) it was 0.96 µM.
